The numbers were not newly measured in patent US20210307362A1, “Supplement for animal feed for sucking pigs” (Proviron Holding N.V., priority 2018, published 2021), which cites them from elsewhere.

Each structure is given as a SMILES string.

Consider `CCCC(=O)OCC(COC(=O)CCC)OC(=O)CCC` [Glycerol tri butyrate], for which the solubility in water entry was “insoluble in water”.
